Data on 1 compound can be found in patent publication US20130309337A1, “PROCESS FOR THE PREPARATION OF PLANT EXTRACTS FOR TREATING SKIN DISORDERS AND ENHANCING HEALING OF WOUNDS” (DEVELOPMENT CENTER FOR BIOTECHNOLOGY, priority 2007, published 2013).

This assay deals with STZ-induced diabetic rats. The experiment in a line: Wound closure in STZ-induced diabetic rats (full-thickness dorsal excision wounds, topical application twice a day). Type of assay: in vivo, rat. The settings on record: Example 6, Table 1. As for the experimental part:
Rats with a body weight of over 300 g were administered with Streptozotocin (STZ, 65 mg/kg, i.p.) to induce high blood sugar.
• i. The high-blood-sugar animals with a body weight of lower than 300 g were eliminated and the rest were randomized into 6 groups. • ii. The animals were anesthetized with pentobarbital and the hair on the surgical area (dorsal area) was removed. The surgical areas and instruments were then sterilized with 75% alcohol before operation. • iii. The skins on the dorsal medium areas (4, 6 and 8 cm from the midpoint of two scapula) were excised (full thickness) using a round cutting blade with a diameter of 1 cm. Measuring the Wounds, Applying Testing Materials, and Preventing the Wounds from Being Scratched • i. A standard ruler was placed beside the wounds and pictures were taken. • ii. A thin layer of the test materials formulated as ointments and 0.05 ml of CGS21680 solution were applied to each wound. • iii. The wounds were covered with gauze and hoods were worn on the rats' necks.
Test materials were applied to the rats twice a day (morning and evening) and the wounds were measured at each time point.
A standard ruler was placed beside the wounds when pictures were taken. The length of the wounds was standardized according to the scale of the standard ruler in the pictures before the wounds were analyzed with the image processing software Image-Pro (Media Cybernetics, Inc.) to avoid the errors caused by different picturing distances.
The areas of the three wounds on the rats' backs were analyzed by Image-Pro. The wound areas of day zero were the original wound areas. The original wound areas minus the wound areas at different time points were divided by the original wound areas to get the wound closure percentages. The mean of the three wound closure percentages of each rat represents the wound closure of each rat. Four to seven rats per group were used for each test materials. The data was shown as mean±standard error (SEM). The p-values of the test results were calculated by t-test in statistics software sigma statis (Systat software Inc.). P<0.05 means there is a significant difference, and it is marked with * on the statistics charts or tables. P<0.01 means there is a very significant difference, and it is marked with ** on the statistics charts or tables. P<0.001 means there is an extremely significant difference, and it is marked with *** on the statistics charts or tables.
The purpose of this example is to compare the efficacy of the composition of the present invention and that of the commercially available products on wound closures. The wound closure animal experiments were conducted according to Example 5. On day 0, 4, 6, 8, 10 and 12 after the treatments of placebo (Group 1), 1% S1 ointment (Group 2), CGS-21680 (Group 3), Regranex (Group 4), DCB-WH1-C (Group 5) and DCB-WH1-W (Group 6), the wound areas of all experimental groups were measured and the wound closure percentages and CT50 (time required for 50% wound closure) values were calculated.
The purpose of this example is to compare the efficacy of DCB-WH1-W with that of its active ingredients in wound closures. The test materials are placebo (Group 1), 1% S1 ointment (Group 2), 0.25% PA-W4 ointment (Group 3), DCB-WH1-W (Group 4) and 1% PA-W4 ointment (Group 5). The wound closure animal experiments were conducted according to Example 5. On day 0, 4, 9, 11 and 13 after the treatment with the test materials, the wound areas of all experimental groups were measured and the wound closure percentages and CT50 were calculated.

Each structure is given as a SMILES string.

For `CCNC(=O)[C@H]1O[C@@H](n2cnc3c(N)nc(NCCc4ccc(CCC(=O)O)cc4)nc32)[C@H](O)[C@@H]1O` [CGS-2168, CGS-21680], the “CT50 (time required for 50% wound closure)” value came out at 10.3 days. For the same compound, where the note is “day 4 after treatment, mean ± SEM, topical twice a day”, the “Wound closure percentage (%) Day 4” value is recorded as −21.3 ± 4.8%. Besides, the “Wound closure percentage (%) Day 6” value (day 6, mean ± SEM) is −27.38 ± 3.2%. Further, the “Wound closure percentage (%) Day 8” value (day 8, mean ± SEM) is recorded as −2.4 ± 4.1%. Besides, under “day 10, mean ± SEM”, the “Wound closure percentage (%) Day 10” value was found to be 46.7 ± 6.0%. For the same compound, the “Wound closure percentage (%) DAY 12” value (day 12, mean ± SEM) was 71.7 ± 2.4%.
